# Values of other authors, collected in patent US20220265689A1, “HIV PRE-EXPOSURE PROPHYLAXIS” (THE UNITED STATES OF AMERICA ,AS REPRESENTED BY THE …, priority 2019, published 2022).
# Tested on: HIV-1
# Conditions: HIV-1 T cells, activated PBMCs, macrophages
smiles,measurement,value
"CC(C)OC(=O)[C@H](C)N[P@](=O)(CO[C@H](C)Cn1cnc2c(N)ncnc21)Oc1ccccc1 [TAF, tenofovir alafenamide]",enhanced anti-HIV activity relative to tenofovir,500- to 10300 fold
